Results on 11 compounds are retold here after ChEMBL document CHEMBL1201862, “PubChem BioAssay data set” (2004).

Assay in all cases: inhibition of tumour cell growth, NCI panel, 48 h
The subject of test [1] is UO-31.
Test [2] deals with A549.
The test system of test [3] is SF-295.
Test [4] concerns HCT-15.
In test [5] the test system is 786-0.
The subject of test [6] is NCI-H226.
For test [7], the system named is UACC-62.
Test [8] concerns NCI-H23.
Test [9] has as its system SNB-19.
Test [10] deals with BT-549.
Test [11] has as its system RXF 393.
Test [12] relates to NCI-H460.
Test [13] deals with A498.
Test [14] has as its system MCF7.
The test system of test [15] is U-251.
Test [16] has as its system DU-145.
Test [17] concerns LOX IMVI.
Test [18] relates to SNB-75.
Test [19] concerns HCC 2998.
The test system of test [20] is Malme-3M.

Values joined by “and” are separate entries in the source; they are usually repeats but may differ in a detail not shown here. Identical values can stand only once.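 Each compound was tested at five concentrations against cells in 96-well plates for 48 hours. GI50: concentration for 50% inhibition of growth.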 Active and inactive are the calls of the source. Cut-off read from the data, not from the text of the source: active = GI50 up to about 1.1 µM and inactive = higher.

Consider `O=C(O/C=C\OC1CCCC1(c1ccccc1)c1ccccc1)c1ccccc1` (stereo not drawn), for which the GI50 in [1] is 1.87 µM (inactive); in [2], 21.4 µM (inactive); in test [3], 19.2 µM (inactive); in [4], 2.23 µM; in [5], 4.03 µM (inactive); in [6], 19.8 µM (inactive). Further, the GI50 in test [7] was 6.28 µM (inactive); in test [8], 2.19 µM (inactive); in test [9] it was 14.8 µM (inactive); in test [10] it was 2.12 µM (inactive); in test [11], 2.49 µM (inactive); in test [12], 25.9 µM (inactive). In addition, the GI50 in [13] was 23.1 µM (inactive); in test [14], 2.6 µM (inactive); in test [15], 3.66 µM (inactive); in [16], 3.02 µM (inactive); in test [17], 1.67 µM (inactive); in test [18] it was 3.83 µM (inactive). Besides, the GI50 in test [19] is 18.7 µM (inactive).
Turning to `CC(=O)Nc1ccc(NS(=O)(=O)c2ccc3nc(C)n(NS(=O)(=O)c4ccc(NC(C)=O)cc4)c(=O)c3c2)cc1`, the GI50 in test [1] is > 100 µM (inactive); in [2], > 100 µM (inactive); in [3], > 100 µM (inactive); in test [4], > 100 µM; in test [5] it was > 100 µM (inactive); in test [6] it was > 100 µM (inactive). Also, the GI50 in test [7], in [8], in test [9], in [10], in test [11] and in test [12] was > 100 µM (inactive) throughout. Moreover, the GI50 in test [13], in [14], in [15], in [16], in test [17] and in test [18] was > 100 µM (inactive) in each case. For the same compound, in test [19], the GI50 is > 100 µM (inactive).
As for `Cc1c2c(n3c(nc4ccccc43)c1C#N)SCC2`, the GI50 was > 10 µM (inactive) in test [1]; > 10 µM (inactive) in test [2]; > 10 µM (inactive) in test [3]; > 10 µM in test [4]; 8.71 µM (inactive) in [5]; > 10 µM (inactive) in [6]. The GI50 in test [7], in test [20], in [8], in test [9], in test [10] and in [12] was > 10 µM (inactive) throughout. Moreover, the GI50 was 3.36 µM (inactive) in test [13]; > 10 µM (inactive) in test [14]; > 10 µM (inactive) in test [15]; > 10 µM (inactive) in test [16]; > 10 µM (inactive) in test [17]; > 10 µM (inactive) in test [18].
Take `O=C(O)CCC(NC(=O)c1ccc(Nc2nc3ccc(C(F)(F)F)cc3nc2C(=O)O)cc1)C(=O)O` (stereo not drawn): the GI50 is > 100 µM (inactive) in test [1]; > 100 µM (inactive) in test [2]; > 100 µM (inactive) in test [3]; > 100 µM in test [4]; > 100 µM (inactive) in [5]; > 100 µM (inactive) in test [6]. For the same compound, the GI50 in test [7], in test [8], in [9], in [10], in [11] and in test [13] was > 100 µM (inactive) each time. For the same compound, the GI50 in test [14], in test [15], in test [16], in [17], in test [18] and in test [19] was > 100 µM (inactive) throughout.
`NCCCCN(CCCN)C(=O)c1ccccc1`: the GI50 in test [1] is > 100 µM (inactive); in test [2] it was > 100 µM (inactive); in test [3] it was > 100 µM (inactive); in test [4], > 100 µM; in test [5], > 100 µM (inactive); in [6], > 100 µM (inactive). Also, the GI50 in test [7], in test [8], in test [9], in test [10], in test [11] and in test [12] was > 100 µM (inactive) throughout. Further, the GI50 in [13], in [14], in test [15], in test [16], in [18] and in [19] was > 100 µM (inactive) each time.
For `COc1ccccc1/N=N/c1c(O)ccc2ccccc12`, the GI50 was 17.9 µM (inactive) and > 10 µM (inactive) in test [1]; 32.7 µM (inactive) and 23 µM (inactive) in test [2]; 20 µM (inactive) and 28.5 µM (inactive) in test [3]; > 63.2 µM in [4]; 13.8 µM (inactive) and 19.3 µM (inactive) in test [5]; 21.7 µM (inactive) and 31.4 µM (inactive) in test [8]. For the same compound, the GI50 in test [9] is 27.6 µM (inactive) and 26.9 µM (inactive); in test [10], 84.3 µM (inactive); in test [12], 18.9 µM (inactive); in [13], 32.1 µM (inactive) and 23.5 µM (inactive); in [14], 52.8 µM (inactive); in test [15], 14.2 µM (inactive) and 18.9 µM (inactive). Moreover, the GI50 in test [16] was 54.2 µM (inactive) and 98.9 µM (inactive); in test [18], 18.7 µM (inactive) and 19.6 µM (inactive); in test [19], 21.3 µM (inactive).
Take `O=C1N(C2CCCCC2)C(=O)N1C1CCCCC1`: the GI50 is < 0.0105 µM (active) in test [1]; 0.245 µM (active) in test [2]; 0.29 µM (active) in test [3]; 0.257 µM in test [4]; 0.362 µM (active) in [5]; 0.416 µM (active) in test [6]. Also, the GI50 is 0.21 µM (active) in test [7]; 1.99 µM (inactive) in [20]; 0.83 µM (active) in test [8]; 1.46 µM (inactive) in test [9]; 0.0272 µM (active) in test [10]; 0.321 µM (active) in [12]. The GI50 in [13] is 0.16 µM (active); in test [14], 0.723 µM (active); in test [15] it was 0.388 µM (active); in test [16] it was 0.126 µM (active); in test [17], 0.209 µM (active); in test [18] it was 0.142 µM (active). The GI50 in [19] is 1.16 µM (inactive).
Regarding `C=C1C[C@]23CC[C@@H]4C(CO)(CO)CC(=O)C[C@]4(C)[C@@H]2CC[C@H]1C3`, the GI50 in test [1] is 78.5 µM (inactive); in test [2], > 100 µM (inactive); in test [3], > 100 µM (inactive); in test [4], > 100 µM; in [5], > 100 µM (inactive); in test [6] it was 93.8 µM (inactive). Also, the GI50 in [7] is > 100 µM (inactive); in test [20], > 100 µM (inactive); in test [8], > 100 µM (inactive); in [9] it was 21.5 µM (inactive); in test [10] it was > 100 µM (inactive); in [12] it was > 100 µM (inactive). Besides, the GI50 in test [14], in test [15], in [16], in test [17], in test [18] and in [19] was > 100 µM (inactive) each time.
With `C=C(C)c1cc(C(C)(C)C)cc(C(=C)C)c1S(C)(=O)=O`, the GI50 was > 100 µM (inactive) in test [1]; > 100 µM (inactive) in [2]; > 100 µM (inactive) in test [3]; > 100 µM in test [4]; > 100 µM (inactive) in test [5]; > 100 µM (inactive) in [6]. Further, the GI50 in test [7], in test [20], in test [8], in test [9], in test [10] and in test [12] was > 100 µM (inactive) each time. The GI50 in [13], in test [14], in [15], in [16], in test [17] and in [18] was > 100 µM (inactive) each time. For the same compound, the GI50 in test [19] was > 100 µM (inactive).
As for `O=C1c2cc(O)c(O)cc2O[C@H](c2ccc(O)c(O)c2)[C@H]1O`, the GI50 in [1] was > 100 µM (inactive); in [2], > 100 µM (inactive); in [3], > 100 µM (inactive); in [4] it was > 100 µM; in test [5], > 100 µM (inactive); in [6] it was 85.1 µM (inactive). In addition, the GI50 in [7] is > 100 µM (inactive); in test [8] it was 45.4 µM (inactive); in test [9], > 100 µM (inactive); in test [10], > 100 µM (inactive); in test [12] it was 49.7 µM (inactive); in test [13], > 100 µM (inactive). For the same compound, the GI50 in test [14], in test [15], in [16], in test [17], in test [18] and in test [19] was > 100 µM (inactive) in each case.
Turning to `CCCCCCC(=O)O[C@H]1CC[C@H]2[C@@H]3CCC4C/C(=N/NC(=O)c5cccc6c(=O)c7ccccc7[nH]c56)C=C(C)[C@]4(C)[C@H]3CC[C@]12C` (stereo partly drawn), the GI50 in [1] was 19.6 µM (inactive); in test [2] it was > 25 µM (inactive); in test [3] it was > 25 µM (inactive); in test [4], > 25 µM; in test [5], > 25 µM (inactive); in [6] it was > 25 µM (inactive). Also, the GI50 in test [7], in [20], in [8], in test [9], in test [10] and in test [14] was > 25 µM (inactive) in each case. Besides, the GI50 in [15], in test [16], in test [17], in [18] and in test [19] was > 25 µM (inactive) each time.
